From US9884842B2, “Combretastatin analogs” (The Board of Trustees of the University of Arkansas, priority 2013, dated 2018)

Legend:
HL-60(TB) = experiment: cells; conditions: Homo sapiens; for GI50: HL-60; for CC50: HL-60, read-out: LC50
OVCAR-3 = experiment: cells; conditions: Homo sapiens; for GI50: OVCAR-3; for CC50: OVCAR-3, read-out: LC50
CCRF-CEM = experiment: NCI growth inhibition and cytotoxicity screen, Leukemia panel; conditions: Homo sapiens; for CC50: read-out: LC50
MOLT-4 = experiment: as above; conditions: Homo sapiens; for GI50: MOLT-4; for CC50: MOLT-4, read-out: LC50
RPMI-8226 = experiment: as above; conditions: Homo sapiens; for GI50: RPMI-8226; for CC50: RPMI-8226, read-out: LC50
LOX-IMVI = experiment: NCI growth inhibition and cytotoxicity screen, Melanoma panel; conditions: Homo sapiens; for CC50: read-out: LC50
M14 = experiment: as above; conditions: Homo sapiens; for GI50: M14; for CC50: M14, read-out: LC50
SK-MEL-28 = experiment: as above; conditions: Homo sapiens; for GI50: SK-MEL-28; for CC50: SK-MEL-28, read-out: LC50
SF-539 = experiment: NCI growth inhibition and cytotoxicity screen, CNS Cancer panel; conditions: Homo sapiens; for GI50: SF-539; for CC50: SF-539, read-out: LC50
SNB-19 = experiment: as above; conditions: Homo sapiens; for GI50: SNB-19; for CC50: SNB-19, read-out: LC50
SNB-75 = experiment: as above; conditions: Homo sapiens; for GI50: SNB-75; for CC50: SNB-75, read-out: LC50
A549/ATCC = experiment: NCI growth inhibition and cytotoxicity screen, Lung Cancer panel; conditions: Homo sapiens; for GI50: A549; for CC50: A549, read-out: LC50
HOP-62 = experiment: as above; conditions: Homo sapiens; for GI50: HOP-62; for CC50: HOP-62, read-out: LC50
HOP-92 = experiment: as above; conditions: Homo sapiens; for GI50: HOP-92; for CC50: HOP-92, read-out: LC50
NCI-H226 = experiment: as above; conditions: Homo sapiens; for GI50: NCI-H226; for CC50: NCI-H226, read-out: LC50
NCI-H23 = experiment: as above; conditions: Homo sapiens; for GI50: NCI-H23; for CC50: NCI-H23, read-out: LC50
COLO 205 = experiment: NCI growth inhibition and cytotoxicity screen, Colon Cancer panel; conditions: Homo sapiens; for GI50: COLO 205; for CC50: COLO 205, read-out: LC50
HCC-2998 = experiment: as above; conditions: Homo sapiens; for GI50: HCC 2998; for CC50: HCC 2998, read-out: LC50
HCT-116 = experiment: as above; conditions: Homo sapiens; for GI50: HCT-116; for CC50: HCT-116, read-out: LC50
KM12 = experiment: as above; conditions: Homo sapiens; for GI50: KM12; for CC50: KM12, read-out: LC50
SW-620 = experiment: as above; conditions: Homo sapiens; for GI50: SW-620; for CC50: SW-620, read-out: LC50
786-0 = experiment: NCI growth inhibition and cytotoxicity screen, Renal Cancer panel; conditions: Homo sapiens; for GI50: 786-0; for CC50: 786-0, read-out: LC50
SN12C = experiment: as above; conditions: Homo sapiens; for CC50: read-out: LC50
UO-31 = experiment: as above; conditions: Homo sapiens; for GI50: UO-31; for CC50: UO-31, read-out: LC50
HS 578T = experiment: NCI growth inhibition and cytotoxicity screen, Breast Cancer panel; conditions: Homo sapiens; for CC50: read-out: LC50
BT-549 = experiment: as above; conditions: Homo sapiens; for GI50: BT-549; for CC50: BT-549, read-out: LC50
T-47D = experiment: as above; conditions: Homo sapiens, T47D; for CC50: read-out: LC50
IGROV1 = experiment: NCI growth inhibition and cytotoxicity screen, Ovarian Cancer panel; conditions: Homo sapiens; for GI50: IGROV-1; for CC50: IGROV-1, read-out: LC50
NCI/ADR-RES = experiment: as above; conditions: Homo sapiens; for CC50: read-out: LC50
SK-OV-3 = experiment: as above; conditions: Homo sapiens; for GI50: SK-OV-3; for CC50: SK-OV-3, read-out: LC50
PC-3 = experiment: NCI growth inhibition and cytotoxicity screen, Prostate Cancer panel; conditions: Homo sapiens; for GI50: PC-3; for CC50: PC-3, read-out: LC50
NCI-H522 = experiment: NCI growth inhibition and cytotoxicity screen, Lung Cancer panel; assay type: cell-based; conditions: Homo sapiens, NCI-H522, Table 1, cell line NCIH522 (Lung Cancer); for CC50: read-out: LC50 (the source's name)

## COc1cc(/C(C#N)=C\c2cc3ccccc3s2)cc(OC)c1OC [Formula (I)(a)]
HL-60(TB)
  GI50: < 10 nM
  CC50: > 100000 nM
OVCAR-3
  GI50: < 10 nM
  CC50: > 100000 nM
CCRF-CEM
  GI50: < 10 nM
  CC50: > 100000 nM
MOLT-4
  GI50: < 10 nM
  CC50: > 100000 nM
RPMI-8226
  GI50: < 10 nM
  CC50: > 100000 nM
LOX-IMVI
  GI50: < 10 nM
  CC50: > 100000 nM
M14
  GI50: < 10 nM
  CC50: > 100000 nM
SK-MEL-28
  GI50: < 10 nM
  CC50: > 100000 nM
SF-539
  GI50: < 10 nM
  CC50: > 100000 nM
SNB-19
  GI50: 39.1 nM
  CC50: > 100000 nM
SNB-75
  GI50: < 10 nM
  CC50: > 100000 nM
A549/ATCC
  GI50: < 10 nM
  CC50: > 100000 nM
HOP-62
  GI50: < 10 nM
  CC50: > 100000 nM
HOP-92
  GI50: < 10 nM
  CC50: > 100000 nM
NCI-H226
  GI50: 17.9 nM
  CC50: > 100000 nM
NCI-H23
  GI50: < 10 nM
  CC50: > 100000 nM
COLO 205
  GI50: < 10 nM
  CC50: 250 nM
HCC-2998
  GI50: 19.2 nM
  CC50: > 100000 nM
HCT-116
  GI50: < 10 nM
  CC50: > 100000 nM
KM12
  GI50: < 10 nM
  CC50: > 100000 nM
SW-620
  GI50: < 10 nM
  CC50: > 100000 nM
786-0
  GI50: < 10 nM
  CC50: > 100000 nM
SN12C
  GI50: < 10 nM
  CC50: > 100000 nM
UO-31
  GI50: < 10 nM
  CC50: > 100000 nM
HS 578T
  GI50: < 10 nM
  CC50: > 100000 nM
BT-549
  GI50: < 10 nM
  CC50: > 100000 nM
T-47D
  GI50: < 10 nM
  CC50: > 100000 nM
IGROV1
  GI50: < 10 nM
  CC50: > 100000 nM
NCI/ADR-RES
  GI50: < 10 nM
  CC50: > 100000 nM
SK-OV-3
  GI50: < 10 nM
  CC50: > 100000 nM
PC-3
  GI50: < 10 nM
  CC50: > 100000 nM

## COc1cc(OC)cc(/C(C#N)=C/c2c[nH]c3ccccc23)c1 [Formula (I)(b)]
NCI-H522
  GI50: 27.1 nM
  CC50: > 100000 nM
HL-60(TB)
  GI50: 31.2 nM
  CC50: > 100000 nM
OVCAR-3
  GI50: 31.2 nM
  CC50: > 100000 nM
CCRF-CEM
  GI50: 42.4 nM
  CC50: > 100000 nM
MOLT-4
  GI50: 49.1 nM
  CC50: > 100000 nM
RPMI-8226
  GI50: 65.5 nM
  CC50: > 100000 nM
LOX-IMVI
  GI50: 78.4 nM
  CC50: > 100000 nM
M14
  GI50: 42.4 nM
  CC50: > 100000 nM
SK-MEL-28
  GI50: 81.1 nM
  CC50: > 100000 nM
SF-539
  GI50: 52.2 nM
  CC50: 90200 nM
SNB-19
  GI50: 62.1 nM
  CC50: > 100000 nM
SNB-75
  GI50: 34.8 nM
  CC50: > 100000 nM
A549/ATCC
  GI50: 61.8 nM
  CC50: > 100000 nM
HOP-62
  GI50: > 100 nM
  CC50: > 100000 nM
HOP-92
  GI50: 68.4 nM
  CC50: > 100000 nM
NCI-H226
  GI50: > 100 nM
  CC50: > 100000 nM
NCI-H23
  GI50: > 100 nM
  CC50: > 100000 nM
COLO 205
  GI50: 47.7 nM
  CC50: 15200 nM
HCC-2998
  GI50: > 100 nM
  CC50: > 100000 nM
HCT-116
  GI50: 42.5 nM
  CC50: > 100000 nM
KM12
  GI50: 40.9 nM
  CC50: > 100000 nM
SW-620
  GI50: 44.1 nM
  CC50: > 100000 nM
786-0
  GI50: 77.3 nM
  CC50: > 100000 nM
SN12C
  GI50: 77.9 nM
  CC50: > 100000 nM
UO-31
  GI50: > 100 nM
  CC50: > 100000 nM
HS 578T
  GI50: > 100 nM
  CC50: > 100000 nM
BT-549
  GI50: > 100 nM
  CC50: > 100000 nM
T-47D
  GI50: > 100 nM
  CC50: > 100000 nM
IGROV1
  GI50: > 100 nM
  CC50: > 100000 nM
NCI/ADR-RES
  GI50: 33.3 nM
  CC50: > 100000 nM
SK-OV-3
  GI50: > 100 nM
  CC50: > 100000 nM
PC-3
  GI50: 75.5 nM
  CC50: > 100000 nM

## COc1cc(/C=C/c2cc3ccccc3o2)cc(OC)c1OC [Formula (I)(c)]
NCI-H522
  GI50: 0.43 nM
  CC50: > 100000 nM
HL-60(TB)
  GI50: 0.35 nM
  CC50: > 100000 nM
OVCAR-3
  GI50: 0.42 nM
  CC50: 48100 nM
CCRF-CEM
  GI50: 0.42 nM
  CC50: > 100000 nM
MOLT-4
  GI50: 0.85 nM
  CC50: > 100000 nM
RPMI-8226
  GI50: 0.7 nM
  CC50: > 100000 nM
LOX-IMVI
  GI50: 0.89 nM
  CC50: 60400 nM
M14
  GI50: 0.47 nM
  CC50: 88400 nM
SK-MEL-28
  GI50: 0.83 nM
  CC50: > 100000 nM
SF-539
  GI50: 0.27 nM
  CC50: > 100000 nM
SNB-19
  GI50: 0.58 nM
  CC50: > 100000 nM
SNB-75
  GI50: 0.47 nM
  CC50: > 100000 nM
A549/ATCC
  GI50: 0.61 nM
  CC50: > 100000 nM
HOP-62
  GI50: 0.77 nM
  CC50: > 100000 nM
HOP-92
  GI50: 0.17 nM
  CC50: > 100000 nM
NCI-H226
  GI50: 1.1 nM
  CC50: > 100000 nM
NCI-H23
  GI50: 3.09 nM
  CC50: > 100000 nM
COLO 205
  GI50: 0.4 nM
  CC50: 19500 nM
HCC-2998
  GI50: 3.34 nM
  CC50: > 100000 nM
HCT-116
  GI50: 0.522 nM
  CC50: 77000 nM
KM12
  GI50: 0.5 nM
  CC50: > 100000 nM
SW-620
  GI50: 0.44 nM
  CC50: > 100000 nM
786-0
  GI50: 0.85 nM
  CC50: 79800 nM
SN12C
  GI50: 4.09 nM
  CC50: > 100000 nM
UO-31
  GI50: 1.15 nM
  CC50: > 100000 nM
HS 578T
  GI50: 0.49 nM
  CC50: > 100000 nM
BT-549
  GI50: 1.09 nM
  CC50: 79500 nM
T-47D
  GI50: 0.69 nM
  CC50: > 100000 nM
IGROV1
  GI50: 0.8 nM
  CC50: > 100000 nM
NCI/ADR-RES
  GI50: 0.51 nM
  CC50: > 100000 nM
SK-OV-3
  GI50: 0.65 nM
  CC50: > 100000 nM
PC-3
  GI50: 0.52 nM
  CC50: > 100000 nM
